Assay results as given in patent US20230293535A1, “ERBB/BTK INHIBITORS” (Dizal (Jiangsu) Pharmaceutical Co., Ltd., priority 2018, published 2023).
Where two headings read alike, the source gives them in different places.

What was measured:
Format in all cases: cell-based
Ba/F3 EGFR NPH ins cells = test: Cell proliferation, Ba/F3 EGFR NPH ins (CellTiter-Glo, 72 h); conditions: Ba/F3 EGFR, 72 h;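 also: IL3-independent cells carrying constitutively phosphorylated EGFR, compound dilution series, viable cells quantified by ATP luminescence, growth relative to DMSO wells after subtracting pre-dosing (day 0) baseline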
Ba/F3 EGFR ASV ins cells = test: Cell proliferation, Ba/F3 EGFR ASV ins (CellTiter-Glo, 72 h); conditions: Ba/F3 EGFR, 72 h;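 also: IL3-independent Ba/F3 cells transduced with EGFR V769_D770insASV, cellular ATP luminescence after compound exposure, growth relative to DMSO control with the day-0 baseline reading subtracted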
[1] = test system: NCI-H1975 EGFR L858R/T790M cells; test: Cell proliferation, NCI-H1975 EGFR L858R/T790M (CellTiter-Glo, 72 h); conditions: Homo sapiens, NCI-H1975, 72 h;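 also: viable cells quantified by luciferase-based ATP luminescence, proliferation expressed relative to DMSO-treated wells (100%) after subtracting a parallel plate read at the time of dosing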
[2] = test system: Her2 exon 20 insertion YVMA transduced NIH-3T3 cell line; test: Cell proliferation, Her2 YVMAins NIH-3T3 (CellTiter-Glo, 72 h); conditions: Mus musculus, NIH3T3, 72 h;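 also: viable cells quantified by ATP luminescence, growth over a day-zero baseline plate expressed as percent of DMSO control growth, compound dilution series in 10% FBS medium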
WT EGFR cell line A-431 = test: Cell proliferation, WT EGFR A431 (CellTiter-Glo, 72 h); conditions: Homo sapiens, A-431, 72 h;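 also: proliferation from a luminescent ATP viability signal, expressed as 100 × (treated minus time-zero plate) over (DMSO control minus time-zero plate), cells grown with 10% FBS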
Protocol: WT or mutant cells were seeded in 384 well plates at appropriate concentrations with corresponding growth media supplemented with 10% FBS, for each experiment, identical plates were prepared in duplicates, and the plates were incubated overnight. On the next day, one of each duplicated plates was dosed with tested compounds at a series of concentrations, and another one of the duplicated plate was analysied for G0 value. The dosed plates were incubate for another 72 h at 37° C. with 5% CO2 and the number of viable cells in each well of the G0 plates or the dosed plates were measured by CellTiter-Glo® Luminescent Cell Viability Assay (Promega). This assay is a luminescent method for determining the number viable cells through measurement of cellular ATP concentration by detection of luciferase activity. Detection reagents (15 µl) was dispensed into per well, and the plates were incubate for 30 min at room temperature. Then, the luminescence in each well was measured using the Envision plate reader (PerkinElmer). The percentage of proliferation was calculated based on the formula: %Proliferation= 100 × (G3 value of sample well-Go value)/(G3 value of DMSO control-Go value).

OCI-LY-10 cells = test: BTK (wt) cell proliferation, OCI-LY-10 (CellTiter-Glo, 72 h); conditions: Homo sapiens, OCI-Ly10, 72 h, read-out: BTK WT OCI-LY-10 GI50;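 also: viable cells quantified via cellular ATP luminescence, proliferation given as percent of DMSO control after subtracting a duplicate plate read at time of dosing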
TMD-8 cells = test: BTK (wt) cell proliferation, TMD-8 (CellTiter-Glo, 72 h); conditions: Homo sapiens, TMD8, 72 h, read-out: BTK WT TMD-8 GI50;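 also: viable cells quantified by ATP-based luminescence, proliferation expressed as percent of DMSO control after subtracting a time-zero baseline plate read at dosing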
Ri-1 cells = test: BTK (wt) cell proliferation, Ri-1 (CellTiter-Glo, 72 h); conditions: Ri-1, 72 h, read-out: BTK WT Ri-1 GI50;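 also: viable cells quantified as cellular ATP luminescence, proliferation normalized to a time-zero plate and the DMSO control, compounds tested across a dilution series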
DB cells = test: BTK (wt) cell proliferation, DB (CellTiter-Glo, 72 h); conditions: Homo sapiens, DB, read-out: Non-BCR activated DB GI50;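 also: DB cells in 384-well plates given a dilution series of compound, viable cells read by ATP luminescence, growth expressed versus DMSO control after subtracting a time-zero plate reading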
[3] = target: T1, human EGFR exon 20 H773_V774insNPH (Homo sapiens, UniProt P00533, INS773NPH); test: EGFR Exon20 NPH insertion cellular phosphorylation inhibition (MSD pEGFR Y1068/total EGFR); conditions: Ba/F3 EGFR NPH ins cells, 4 h compound, p-EGFR(Y1068)/total EGFR;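 also: IL3-independent Ba/F3 cells with constitutively phosphorylated EGFR, compound exposure at 37 °C under 5% CO2, electrochemiluminescent MSD measurement of the p-EGFR to total EGFR ratio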
T1 construct: host or cells: Ba/F3

[4] = target: T2, human EGFR exon 20 V769_D770insASV (Homo sapiens, UniProt P00533, INS769ASV); test: EGFR Exon20 ASV insertion cellular phosphorylation inhibition (MSD pEGFR Y1068/total EGFR); conditions: Ba/F3 EGFR ASV ins cells, 4 h compound, p-EGFR(Y1068)/total EGFR;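 also: electrochemiluminescent readout on an MSD SECTOR Imager, IL3-independent transduced cells in medium with 1% FBS, compound concentration series at 37 °C and 5% CO2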
T2 construct: expressed in transfected cells; host or cells: Ba/F3 (DSMZ ACC-300), lentiviral transduction, puromycin selection, IL3 depletion

[5] = target: T3, human Her2 exon 20 insertion mutation YVMA (Homo sapiens, UniProt P04626, INS775YVMA); test: Her2 Exon 20 YVMA insertion cellular phosphorylation inhibition (MSD p-Her2 Y1248/total Her2); conditions: Her2 YVMAins cells, 4 h compound;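 also: lentivirally transduced NIH-3T3 cells in 1% FBS medium, electrochemiluminescent MSD read-out, graded compound concentrations at 37 °C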
T3 construct: expressed in transfected cells; host or cells: NIH-3T3, lentiviral transduction, puromycin selection
Protocol: The resulting cell line expressed phosphorylated Her2 protein and its proliferation depended on the mutation gene, which could be used for in vitro PD and anti-proliferation assays.
One day before the test, WT or mutant cells were seeded in 96 well plates at appropriate concentrations with corresponding growth media supplemented with 1% FBS, and incubated overnight. The next day, tested compounds at a series of concentrations were added into each individual well of the plates, and the plates were incubated for 4 h at 37° C. with 5% CO2.
The EGFR (Y1068) phosphorylation level (activity) of cells in each well were then measured with MSD kit named “MULTI-SPOT®96 4-Spot HB Prototype EGFR Triplex [sequence]: pEGFR(Tyr1068),pEGFR(Tyr1173), Total EGFR” according to the manufacturer’s instruction (MESO SCALE DISCOVERY, Cat# N45ZB-1). The assay is an electrochemiluminescent method for determining both phosphorylated and total EGFR of cells with an MSD SECTOR® Imager and the ratio of p-EGFR/total EGFR can be generated by the machine. The Her2 (Y1248) phosphorylation level (activity) of cells in each well were measured with MSD Kit named “Phospho-ErbB2 (Tyr1248) Assay Whole Cell Lysate Kit” according to the manufacturer’s instruction (MESO SCALE DISCOVERY, Cat# K151CLD-3). The assay is an electrochemiluminescent method (MESO SCALE DISCOVERY) for determining both phosphorylated and total Her2 of cells with an MSD SECTOR® Imager and then the ratio of p-Her2/total Her2 can be generated by the machine.

[6] = read-out: EGFR Exon20 NPH insertion GI50 (nM)
[7] = read-out: EGFR Exon20 ASV insertion GI50 (nM)
[8] = read-out: EGFR L858R and T790M mutation GI50 (nM)
[9] = read-out: Her2 Exon 20 YVMA insertion GI50 (nM)
[10] = read-out: EGFR WT A431 GI50 (nM)
[11] = Ba/F3 EGFR NPH ins, 72 h proliferation, read-out: EGFR Exon20 NPH insertion GI50
[12] = Ba/F3 EGFR ASV ins, 72 h proliferation, read-out: EGFR Exon20 ASV insertion GI50
[13] = NCI-H1975, 72 h proliferation, read-out: EGFR L858R and T790M mutation GI50
[14] = Her2 YVMAins cells, 72 h proliferation, read-out: Her2 Exon 20 YVMA insertion GI50
[15] = A431, 72 h proliferation, read-out: EGFR WT A431 GI50
[16] = OCI-LY-10 cells, 72 h, CellTiter-Glo
[17] = TMD-8 cells, 72 h, CellTiter-Glo
[18] = Ri-1 cells, 72 h, CellTiter-Glo

T2 sequence (P00533 with tags, fused parts or gaps INS769ASV): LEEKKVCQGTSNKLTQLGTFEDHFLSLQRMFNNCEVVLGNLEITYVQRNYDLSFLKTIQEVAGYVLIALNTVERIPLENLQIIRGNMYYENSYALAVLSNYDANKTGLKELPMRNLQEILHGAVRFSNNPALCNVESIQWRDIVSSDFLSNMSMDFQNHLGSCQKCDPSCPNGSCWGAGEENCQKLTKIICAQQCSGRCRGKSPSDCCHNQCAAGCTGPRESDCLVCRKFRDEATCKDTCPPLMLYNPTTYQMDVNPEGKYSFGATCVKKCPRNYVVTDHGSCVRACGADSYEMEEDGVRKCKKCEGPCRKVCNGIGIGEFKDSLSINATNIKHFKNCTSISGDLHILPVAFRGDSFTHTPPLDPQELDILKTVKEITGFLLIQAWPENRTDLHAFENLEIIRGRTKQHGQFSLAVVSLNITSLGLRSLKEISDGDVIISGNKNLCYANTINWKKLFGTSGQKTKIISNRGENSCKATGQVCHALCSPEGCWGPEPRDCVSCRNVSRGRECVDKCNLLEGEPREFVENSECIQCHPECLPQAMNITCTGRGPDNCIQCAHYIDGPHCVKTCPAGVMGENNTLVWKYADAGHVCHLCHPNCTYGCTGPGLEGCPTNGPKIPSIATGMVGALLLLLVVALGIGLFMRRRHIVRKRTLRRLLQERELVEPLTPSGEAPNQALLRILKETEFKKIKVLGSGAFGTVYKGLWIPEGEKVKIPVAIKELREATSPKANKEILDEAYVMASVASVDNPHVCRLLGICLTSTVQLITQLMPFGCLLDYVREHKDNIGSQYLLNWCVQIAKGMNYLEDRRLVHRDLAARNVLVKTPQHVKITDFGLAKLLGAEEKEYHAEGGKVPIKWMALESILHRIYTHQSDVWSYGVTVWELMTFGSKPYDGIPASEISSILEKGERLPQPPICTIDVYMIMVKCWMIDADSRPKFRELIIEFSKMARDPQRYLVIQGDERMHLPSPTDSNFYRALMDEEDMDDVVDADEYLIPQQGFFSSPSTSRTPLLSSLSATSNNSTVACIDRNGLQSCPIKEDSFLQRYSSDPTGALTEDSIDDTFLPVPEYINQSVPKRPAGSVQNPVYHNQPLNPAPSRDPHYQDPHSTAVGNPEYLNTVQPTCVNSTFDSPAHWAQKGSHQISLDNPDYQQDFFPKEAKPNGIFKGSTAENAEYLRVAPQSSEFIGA
T1 sequence (P00533 with tags, fused parts or gaps INS773NPH): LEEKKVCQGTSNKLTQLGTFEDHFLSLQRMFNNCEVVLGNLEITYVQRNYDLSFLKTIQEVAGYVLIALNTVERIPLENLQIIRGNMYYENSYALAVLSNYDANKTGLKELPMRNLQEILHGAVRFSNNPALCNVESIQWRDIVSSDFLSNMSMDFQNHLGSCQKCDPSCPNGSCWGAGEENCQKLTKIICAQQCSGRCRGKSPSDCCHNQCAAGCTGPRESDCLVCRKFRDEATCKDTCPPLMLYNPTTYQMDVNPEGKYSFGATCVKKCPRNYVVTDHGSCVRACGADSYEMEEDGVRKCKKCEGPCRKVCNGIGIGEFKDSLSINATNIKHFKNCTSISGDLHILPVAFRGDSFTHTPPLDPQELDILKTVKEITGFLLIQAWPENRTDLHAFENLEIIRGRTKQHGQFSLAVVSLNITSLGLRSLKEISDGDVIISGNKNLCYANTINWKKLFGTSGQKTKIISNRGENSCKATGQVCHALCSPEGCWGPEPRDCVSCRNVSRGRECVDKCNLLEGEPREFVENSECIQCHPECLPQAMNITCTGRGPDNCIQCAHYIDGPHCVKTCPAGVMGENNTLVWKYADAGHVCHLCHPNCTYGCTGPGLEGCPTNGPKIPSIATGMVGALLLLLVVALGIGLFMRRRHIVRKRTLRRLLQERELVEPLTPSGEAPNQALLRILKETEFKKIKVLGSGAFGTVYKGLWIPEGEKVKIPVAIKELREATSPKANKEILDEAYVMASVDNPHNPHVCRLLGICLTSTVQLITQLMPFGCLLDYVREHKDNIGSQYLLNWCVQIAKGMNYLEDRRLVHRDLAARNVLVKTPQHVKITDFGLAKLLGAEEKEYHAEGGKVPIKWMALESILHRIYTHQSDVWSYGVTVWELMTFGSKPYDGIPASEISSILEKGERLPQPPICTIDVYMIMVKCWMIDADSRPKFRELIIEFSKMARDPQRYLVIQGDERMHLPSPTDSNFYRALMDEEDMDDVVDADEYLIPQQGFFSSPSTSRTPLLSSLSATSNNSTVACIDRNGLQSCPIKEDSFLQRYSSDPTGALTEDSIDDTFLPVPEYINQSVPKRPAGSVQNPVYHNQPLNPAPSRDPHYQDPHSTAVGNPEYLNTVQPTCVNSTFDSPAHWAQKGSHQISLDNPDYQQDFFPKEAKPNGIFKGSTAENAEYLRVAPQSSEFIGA
T3 sequence (P04626 with tags, fused parts or gaps INS775YVMA): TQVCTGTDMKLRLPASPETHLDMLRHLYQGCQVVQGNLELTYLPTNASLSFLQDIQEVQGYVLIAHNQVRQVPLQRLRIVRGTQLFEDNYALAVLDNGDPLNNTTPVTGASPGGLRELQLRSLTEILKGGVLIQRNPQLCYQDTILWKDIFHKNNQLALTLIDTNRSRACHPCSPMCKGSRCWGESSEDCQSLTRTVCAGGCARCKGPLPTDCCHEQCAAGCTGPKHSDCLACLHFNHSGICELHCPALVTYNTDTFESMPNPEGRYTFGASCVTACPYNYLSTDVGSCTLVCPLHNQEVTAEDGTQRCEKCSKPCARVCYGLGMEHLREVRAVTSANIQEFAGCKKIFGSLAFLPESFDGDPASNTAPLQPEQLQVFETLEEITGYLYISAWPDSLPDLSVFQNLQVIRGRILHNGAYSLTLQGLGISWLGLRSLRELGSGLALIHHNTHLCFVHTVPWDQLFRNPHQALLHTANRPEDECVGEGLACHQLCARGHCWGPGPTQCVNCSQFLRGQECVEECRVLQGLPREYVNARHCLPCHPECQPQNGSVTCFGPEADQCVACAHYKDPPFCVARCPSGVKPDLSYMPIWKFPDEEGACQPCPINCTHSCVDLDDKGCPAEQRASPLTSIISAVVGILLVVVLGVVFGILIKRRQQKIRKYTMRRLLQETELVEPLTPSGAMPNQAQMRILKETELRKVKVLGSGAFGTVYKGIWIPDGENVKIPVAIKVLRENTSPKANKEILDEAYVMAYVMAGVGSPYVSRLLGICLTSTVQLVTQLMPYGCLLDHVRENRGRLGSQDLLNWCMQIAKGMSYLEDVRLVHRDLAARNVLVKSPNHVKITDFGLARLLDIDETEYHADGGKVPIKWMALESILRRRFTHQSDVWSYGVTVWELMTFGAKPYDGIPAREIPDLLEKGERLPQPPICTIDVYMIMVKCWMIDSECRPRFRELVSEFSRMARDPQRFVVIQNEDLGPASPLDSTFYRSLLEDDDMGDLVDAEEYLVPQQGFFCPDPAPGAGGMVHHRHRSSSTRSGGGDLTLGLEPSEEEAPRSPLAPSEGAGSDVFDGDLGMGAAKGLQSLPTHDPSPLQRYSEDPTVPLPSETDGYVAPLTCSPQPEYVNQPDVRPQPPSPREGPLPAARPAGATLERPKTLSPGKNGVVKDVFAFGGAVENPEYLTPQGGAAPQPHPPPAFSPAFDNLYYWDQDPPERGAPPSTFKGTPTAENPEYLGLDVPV

SMILES	IC50 [3] [nM]	IC50 [4] [nM]	IC50 [5] [nM]	GI50 (Ba/F3 EGFR NPH ins cells; [11]) [nM]	GI50 (Ba/F3 EGFR ASV ins cells; [12]) [nM]	GI50 [1, 13] [nM]	GI50 [2, 14] [nM]	GI50 (WT EGFR cell line A-431; [15]) [nM]	GI50 (OCI-LY-10 cells; [16]) [nM]	GI50 (TMD-8 cells; [17]) [nM]	GI50 (Ri-1 cells; [18]) [nM]	GI50 (DB cells; DB cells, CellTiter-Glo) [nM]	other results
C=CC(=O)Nc1cc(Nc2nccc(-c3cn(C)c4ccccc34)n2)c(OC)cc1N(C)CCN(C)C [AZD9291, osimertinib, reference compound]													GI50 (Ba/F3 EGFR NPH ins cells; [6]): 177 nM; GI50 (Ba/F3 EGFR ASV ins cells; [7]): 207 nM; GI50 [1, 8]: 14.5 nM; GI50 [2, 9]: 294 nM; GI50 (WT EGFR cell line A-431; [10]): 43.7 nM; GI50 (OCI-LY-10 cells): 1040 nM; GI50 (TMD-8 cells): 1090 nM; GI50 (Ri-1 cells): 2050 nM; GI50 (DB cells): 1020 nM
CN(C)C/C=C/C(=O)Nc1cc2c(Nc3ccc(F)c(Cl)c3)ncnc2cc1O[C@H]1CCOC1 [Afatinib, reference compound]													GI50 [2, 9]: 17.8 nM; GI50 (OCI-LY-10 cells): 1040 nM; GI50 (TMD-8 cells): 1160 nM; GI50 (Ri-1 cells): 1030 nM; GI50 (DB cells): 657 nM
C=CC(=O)Nc1cc(Nc2ncnc(Nc3cnc(C)cc3C(C)(C)O)n2)c(OC)cc1N(C)CCN(C)C [Compound 6, N-(2-((2-(dimethylamino)ethyl)(methyl)amino)-5-(4-(4-(2-hydroxypropan-2-yl)-6-methylpyridin-3-ylamino)-1,3,5-triazin-2-ylamino)-4-methoxyphenyl) acrylamide]	381	191	97.3	625	250	93.7	534	64.7	210	335	289	> 3000	
C=CC(=O)Nc1cc(Nc2ncnc(Nc3ccc(C)nc3C(C)(C)O)n2)c(OC)cc1N(C)CCN(C)C [Compound 7, N-(2-((2-(dimethylamino)ethyl)(methyl)amino)-5-(4-(2-(2-hydroxypropan-2-yl)-6-methylpyridin-3-ylamino)-1,3,5-triazin-2-ylamino)-4-methoxyphenyl) acrylamide]	46.6	40.5	19.7	212	145	25	161	37.9	130	188	> 3000	> 3000	
C=CC(=O)Nc1cc(Nc2ncnc(Nc3ccccc3C3(O)COC3)n2)c(OC)cc1N(C)CCN(C)C [Compound 10, N-(2-((2-(dimethylamino)ethyl)(methyl)amino)-5-(4-(2-(3-hydroxyoxetan-3-yl)phenylamino)-1,3,5-triazin-2-ylamino)-4-methoxyphenyl)acrylamide]	119	73.4	231	189	198	76.3	274	79.4	> 3000	> 3000	> 3000	> 3000	
C=CC(=O)Nc1cc(Nc2ncnc(Nc3ccc(C(F)(F)F)cc3C(C)(C)O)n2)c(OC)cc1N(C)CCN(C)C [Compound 13, N-(2-((2-(dimethylamino)ethyl)(methyl)amino)-5-(4-(2-(2-hydroxypropan-2-yl)-4-(trifluoromethyl)phenylamino)-1,3,5-triazin-2-ylamino)-4-methoxyphenyl)acrylamide]	40.1	22.9	36.4	76.5	53.3	15.3	156	22.5	54.5	56.3	120	> 3000	
C=CC(=O)Nc1cc(Nc2ncnc(Nc3cc(F)c(F)cc3C(C)(C)O)n2)c(OC)cc1N(C)CCN1CCCCC1 [Compound 24]	65	30	49	142	101	23	303	55.5	324	107	415	> 3000	
C=CC(=O)Nc1cc(Nc2ncc(Cl)c(Nc3cc(Cl)c(F)cc3C(C)(C)O)n2)c(OC)cc1N(C)CCN(C)C [Compound 78, N-(5-(5-chloro-4-(5-chloro-4-fluoro-2-(2-hydroxypropan-2-yl)phenylamino)pyrimidin-2-ylamino)-2-((2-(dimethylamino)ethyl)(methyl)amino)-4-methoxyphenyl)acrylamide]			19.7	60	35.7	1.4	49.2	21.5	6.2	10.3	77.8	> 3000	
Cc1cc(C(=O)Nc2nc3cccc(Cl)c3n2[C@@H]2CCCCN(C(=O)/C=C/CN(C)C)C2)ccn1 [EGF816, reference compound]			116	491	502	42.5	242	265	235	166	897	> 3000	
CCOc1cc2ncc(C#N)c(Nc3ccc(OCc4ccccn4)c(Cl)c3)c2cc1NC(=O)/C=C/CN(C)C [Neratinib, reference compound]													GI50 (Ba/F3 EGFR NPH ins cells; [6]): 700 nM; GI50 (Ba/F3 EGFR ASV ins cells; [7]): 88 nM; GI50 [1, 8]: 110 nM; GI50 [2, 9]: 5.2 nM; GI50 (WT EGFR cell line A-431; [10]): 15.9 nM
C=CC(=O)N1CCC(Oc2cc3c(Nc4ccc(Cl)c(Cl)c4F)ncnc3cc2OC)CC1 [Poziotinib, reference compound]			0.8	7.2	4.1	19.4	4.7	0.5	1000	2410	1230	> 3000	
